Results from patent US11919886B2, “4,9-dioxo-4,9-dihydronaphtho[2,3-B]furan-3-carboxamide derivatives and uses thereof for treating proliferative diseases and infectious diseases” (Academia Sinica, priority 2016, dated 2024).
In brackets after ≈: the same amount, converted by molar mass. Like-named read-outs stand apart in the source and are kept apart here.

Experiments:
[1] = tested on: Staphylococcus aureus; assay: MIC, broth micro dilution method; format: cell-based; conditions: MRSA
[2] = tested on: Streptococcus gallolyticus subsp. gallolyticus; assay: MIC, broth micro dilution method; format: cell-based; conditions: strain ATCC43143, S. bovis
[3] = tested on: Staphylococcus lugdunensis; assay: MIC, broth micro dilution method; format: cell-based; conditions: clinical isolate; for MIC: Staphylococcus lugdunensis, strain NTUH-4179, methicillin-resistant
[4] = tested on: Escherichia coli; assay: Bacterial growth by Alamar Blue in Muller-Hinton broth; format: cell-based; conditions: 16-24 hours, read-out: % of the activities in the presence of ~10 μM compound, Escherichia coli
Protocol: (§1) Compound 1 and its analogues shown in Table 6 below were tested for their activities on cancer cells and bacterial cells using assays described herein. H1975, MDA-MB231, and MCF7 cells were incubated in the presence of the compounds in cell growth medium containing 10% fetal bovine serum for two days in a mammalian cell culture incubatoe. Cell viability were monitored by using Cell-TiterGlo. Staphylococcus aureus and Escherichia coli were incubated in the presence of the compounds in Muller-Hinton broth for 16-24 hours in a 37° C. incubator. Bacterial growth was monitored by using Alamar Blue (Invitrogen).

[5] = tested on: Staphylococcus aureus; assay: as above; format: cell-based
Protocol: as §1

[6] = tested on: CL1-0 (human lung adenocarcinoma cells, EGFR wild type and resistant to gefitinib); assay: SRB cytotoxicity assay, CL1-0; conditions: CL1-0, 72 h
[7] = tested on: PC9/IR (human lung adenocarcinoma cells, EGFR del 19 mutation but resistant to gefitinib); assay: SRB cytotoxicity assay, PC9/IR; conditions: 72 h
[8] = tested on: H1975 cells; assay: Cell cycle analysis by propidium iodide flow cytometry; conditions: 72 h
[9] = strain NTUH-6767, methicillin-resistant

Molecule `Cc1oc2c(c1C(=O)NCCCn1ccnc1)C(=O)c1ccccc1C2=O` [Compound 1, N-(3-(1H-Imidazol-1-yl)propyl)-2-methyl-4,9-dioxo-4,9-dihydronaphtho [2,3-b]furan-3-carboxamide] has an MIC ([1]; read-out: MIC (μg/ml) 100%, strain PM1, MRSA (SCCmec VT, ST59), clinical isolate) of 4 µg/mL (≈ 11 µM), an MIC ([1]; read-out: MIC (μg/ml) 100%, strain TSHR17, MRSA (SCCmec VT)) of 4 µg/mL (≈ 11 µM) and an MIC ([1]; strain NTUH-1-2868, MRSA (SCCmec III, ST239, FA-R), clinical isolate, read-out: MIC (μg/ml) 50%) of 0.5 µg/mL (≈ 1.38 µM). For the same molecule, the MIC ([1]; strain NTUH-104-2, MRSA (SCCmec VT, ST45), clinical isolate, read-out: MIC (μg/ml) 50%) was 0.5 µg/mL (≈ 1.38 µM), the MIC ([1]; strain NTUH-406-2, MRSA (SCCmec IV, spa type t008), clinical isolate, read-out: MIC (μg/ml) 50%) was 0.5 µg/mL (≈ 1.38 µM) and the MIC ([1]; strain NTUH-560, MRSA (SCCmec II, GM-S), clinical isolate, read-out: MIC (μg/ml) 50%) was 1 µg/mL (≈ 2.75 µM). It also gave an MIC ([1]; strain NTUH-2102, MRSA (SCCmec II, ST5, FA-S), clinical isolate, read-out: MIC (μg/ml) 50%) of 1 µg/mL (≈ 2.75 µM), an MIC ([1]; strain NTUH-2417, MRSA (SCCmec III, SXT-S), clinical isolate, read-out: MIC (μg/ml) 50%) of 0.5 µg/mL (≈ 1.38 µM) and an MIC ([1]; strain NTUH-2643, MRSA (SCCmec IV, spa type to 15), clinical isolate, read-out: MIC (μg/ml) 50%) of 1 µg/mL (≈ 2.75 µM). The MIC ([1]; strain NTUH-2967, MRSA (SCCmec VT, ST1), clinical isolate, read-out: MIC (μg/ml) 50%) was 1 µg/mL (≈ 2.75 µM), the MIC ([1]; strain NTUH-4400, MRSA (SCCmec II, ST5, FA-R), clinical isolate, read-out: MIC (μg/ml) 50%) was 1 µg/mL (≈ 2.75 µM) and the MIC ([1]; strain NTUH-4578, MRSA (SCCmec IV, ST59), clinical isolate, read-out: MIC (μg/ml) 50%) was 1 µg/mL (≈ 2.75 µM). For the same molecule, the MIC ([1]; strain NTUH-8038, MRSA (SCCmec IV, spa type t189), clinical isolate, read-out: MIC (μg/ml) 50%) was 1 µg/mL (≈ 2.75 µM), the MIC ([1]; strain NTUH-9383, MRSA (SCCmec III, ST239, FA-R), clinical isolate, read-out: MIC (μg/ml) 50%) was 0.5 µg/mL (≈ 1.38 µM) and the MIC ([1]; strain PM1, MRSA (SCCmec VT, ST59), clinical isolate, read-out: MIC (μg/ml) 50%) was 1 µg/mL (≈ 2.75 µM). For the same molecule, the MIC ([1]; strain TSHR17, MRSA (SCCmec VT), read-out: MIC (μg/ml) 50%) was 0.5 µg/mL (≈ 1.38 µM), the MIC ([2]; read-out: MIC (μg/ml) 100%) was 4 µg/mL (≈ 11 µM) and the MIC ([2]; read-out: MIC (μg/ml) 50%) was 2 µg/mL (≈ 5.5 µM). The MIC ([3]; read-out: MIC (μg/ml) 100%) was 4 µg/mL (≈ 11 µM), the MIC ([3]; read-out: MIC (μg/ml) 50%) was 0.5 µg/mL (≈ 1.38 µM) and the “MIC (μg/ml) 50%” value [3, 9] was 0.5 µg/mL (≈ 1.38 µM). The “MIC (μg/ml) 100%” value [3, 9] was 4 µg/mL (≈ 11 µM), the activity at 10 µM [4] was greater than 100% and the MIC [5] was 2 µg/mL (≈ 5.5 µM). It also gave an activity at 10 µM ([5]; ~10 μM, 16-24 hours, Alamar Blue, read-out: % of the activities in the presence of ~10 μM compound, Staphylococcus aureus) of 38.1%, an IC50 [6] of 123 nM and an IC50 [7] of 48 nM. The “Phase(%) G1” value ([8]; H1975, 35 nM) was 70%, the “Phase(%) G2/M” value ([8]; H1975, 35 nM) was 23% and the “Phase(%) S” value ([8]; H1975, 35 nM) was 4%. The “Phase(%) subG1” value ([8]; H1975, 35 nM) was 1%, the “Phase(%) G1” value ([8]; H1975, 70 nM) was 58% and the “Phase(%) G2/M” value ([8]; H1975, 70 nM) was 31%. For the same molecule, the “Phase(%) S” value ([8]; H1975, 70 nM) was 7%, the “Phase(%) subG1” value ([8]; H1975, 70 nM) was 1% and the “Phase(%) G1” value ([8]; H1975, 140 nM) was 39%. The “Phase(%) G2/M” value ([8]; H1975, 140 nM) was 38%, the “Phase(%) S” value ([8]; H1975, 140 nM) was 18% and the “Phase(%) subG1” value ([8]; H1975, 140 nM) was 4%.
